# Measured values reported in US20080058264A1, “AMINO-ACID CONTAINING COMPOSITION FOR INHIBITING ACCUMULATION OF FAT” (AJINOMOTO CO. INC, priority 2006, published 2008).
# What was measured:
# C57BL/6J male mice [1] = assay: Reference Example: mice fed high-fat feed with 3.0% L-threonine for eight weeks; assay type: in vivo
# Method: Twenty C57BL/6J male mice (eight-weeks old, available from CLEA Japan, Inc.) were fed with CRF-1 powder (available from Oriental Yeast Co., Ltd.) during one-week acclimation period. The mice were then subjected to an experiment at the beginning of nine-weeks old.
# The weight of feed intake by the individual mouse was measured, and the amount of energy intake (i.e., kilocalories) was calculated according to the feed from the energy value corresponding to 1 g of each experimental feed. After the eight-weeks' experiment by feeding with the respective experimental diets, the mice were subjected to autopsy to determine their body weight, and the weight of fat tissue sincluding the peri-epididymal fat, peri-renal fat, and mesenteric fat.
# C57BL/6J male mice [2] = assay: Experimental Example 1: mice fed high-fat feed with added amino acids for eight weeks; assay type: in vivo; conditions: compared with HF feed, 2.0% single amino acid or 1.0%+1.0% in high-fat feed; for body weight of mice at autopsy: FIG. 1; for weight of fat tissue of mice at autopsy (accumulation of body fat): FIG. 2
# Method: Forty C57BL/6J male mice (eight-weeks old, available from CLEA Japan, Inc.) were fed with CRF-1 powder (available from Oriental Yeast Co., Ltd.) during one-week acclimation period. The mice were then subjected to an experiment at the beginning of nine-weeks old. […] The weight of feed intake was individually measured, and the amount of energy intake was calculated from the energy value corresponding to 1 g of each experimental feed. After the eight-weeks' experiment by feeding with the respective experimental diets, the mice were subjected to autopsy to determine their body weight, and total fat weight including the peri-epididymal fat, peri-renal fat, mesenteric fat, and subcutaneous fat around the femurs.
"amount of energy intake during the feeding period (C57BL/6J male mice [1]; 3.0% L-threonine, FIG. 15)",Compound,"body weight of mice at autopsy (C57BL/6J male mice [1]; compared with HF feed, 3.0% L-threonine (group 3T), FIG. 13)","weight of fat tissue at autopsy (C57BL/6J male mice [1]; compared with HF feed, 3.0% L-threonine (group 3T), FIG. 14)",body weight of mice at autopsy (C57BL/6J male mice [2]),weight of fat tissue of mice at autopsy (accumulation of body fat) (C57BL/6J male mice [2])
not decreased,"C[C@@H](O)[C@H](N)C(=O)O [threonine, L-threonine]",decreased,decreased,not decreased,not decreased
–,"CC(C)C[C@H](N)C(=O)O [leucine, L-leucine]",–,–,not decreased,not decreased
